Results from patent publication US8343539B2, “Compounds that bind α5β1 integrin and methods of use” (Regents of the University of Minnesota, priority 2006, dated 2013).
“Also recorded” adds a separate entry of the source. Where no end group is shown, it is not given here. (C16)2 = not defined here

How the values were obtained:
HUVECs [1] = test: HUVEC spreading on substrates (cell area); format: cell-based, human
Experimental: (§1) Cell spreading and fibronectin production experiments: Surface transferring, cell seeding, and incubation were done in the same manner as in the adhesion experiment, with a cell density of 497 cells/mm^2, and incubation times of 1, 12, 24, 48, and 72 hour. At the end of each incubation, the surfaces were removed, washed with […] of PBS, and fixed in 1 ml of 4% paraformaldehyde (Sigma) in PBS for 15 minutes at 37° C., 5% CO2. After washing with PBS, surfaces were first labeled for secreted fibronectin: surfaces were subjected to a blocking solution (0.1% BSA in PBS) for 30 minutes, incubated for 1 hour with a primary antibody specific for secreted fibronectin (mouse anti-human fibronectin (P1H11) monoclonal antibody (Chemicon Int.) at a 1:500 dilution in blocking solution, and then for 45 minutes with a secondary antibody (IgG fluorescein (FITC) conjugated antibody; Chemicon Int.) at a 1:200 dilution in PBS. As a final step, cell membranes and nuclei were stained using the Image-iT™ LIVE Plasma Membrane and Nuclear Labeling Kit following the manufacturer's protocol for labeling fixed cells (Molecular Probes). After final washing, surfaces were mounted onto glass slides and stored at 4° C. protected from light. An inverted fluorescent microscope (Nikon Eclipse TE200 with Pixcell II LCM) was used for imaging. Fibronectin production was assessed visually, by comparing 10-20 fluorescence images from two samples for each substrate (two independent experiments performed at different days). Cell spreading was quantified from two samples per substrate (two independent experiments performed at different days) by measuring cell area with the NIH imaging software.

HUVECs [2] = test: Actin cytoskeleton and focal adhesion staining; format: cell-based, human; settings: 1-72 hours
Experimental: Actin cytoskeleton and focal adhesion staining: Surface transferring, cell seeding, incubation, and fixing were done as described above. Staining for the actin cytoskeleton, focal adhesions, and nucleus of attached cells was done using the Actin Cytoskeleton and Focal Adhesion Staining Kit following the manufacturer's protocol (Chemicon Int.) and using 1:350 dilution for anti-vinculin antibody, 1:200 for the secondary antibody, approximately 1:1000 dilution (equivalent to 1 unit/surface) for TRITC-conjugated phalloidin and 1:1000 for DAPI. After washing, surfaces were mounted onto glass slides and stored at 4° C. protected from light. A confocal microscope (BIORAD Multiphoton Confocal 1024) was used for imaging.

HUVECs [3] = test: Extracellular fibronectin production by HUVECs (Example 1); format: cell-based, human
Experimental: as §1

CT26.WT cells = test: Blocking of liposome binding with free PR_b peptide-amphiphile (flow cytometry); format: cell-based, mouse; settings: free peptide-amphiphile 200 μg/ml, 1 hr pre-incubation, 4° C.
Experimental: Flow cytometry: CT26.WT confluent cell monolayers were trypsinized (0.25% Trypsin+0.1% EDTA) and resuspended in ice-cold FB (fluorescent buffer: phosphate buffered saline (PBS) supplemented with 0.02% sodium azide and 2.5% fetal bovine serum) containing liposomes at a lipid concentration of 250 μM and a cell concentration of 1 million/ml in 15 ml centrifuge tubes. Tubes were incubated at 4° C. or 37° C. over a rotary shaker for the specified duration of time. Cells were then pelleted and washed twice in FB. Flow cytometric analysis was carried out immediately. For peptide blocking experiments, the protocol specified above was used except cells were incubated with 200 μg/ml of free peptide-amphiphile in FB for one hour prior to incubating the cells with the liposomes. For integrin α5β1 expression studies, CT26.WT confluent cell monolayers were trypsinized (0.25% Trypsin+0.1% EDTA) and resuspended in ice-cold FB at a cell concentration of 1 million/ml in 15 ml centrifuge tubes. Tubes were incubated at 4° C. with primary antibody (anti-integrin α5β1) or goat isotype control (goat IgG) over a rotary shaker for 35 min. Cells were then pelleted and washed twice in FB and then incubated again with the secondary antibody (anti-goat IgG FITC conjugated) for 35 min. Finally, cells were pelleted and washed twice. Flow cytometric analysis was carried out immediately. […]

(C16)2-Glu-C2-KSSPHSRNSGSGSGSGSGRGDSP ({(C16)2-Glu-C2}-KSSPHSRNSGSGSGSGSGRGDSP; not fully specified; reading uncertain) [PR_b]
HUVEC spreading (cell area) (HUVECs [1]; 1-24 hours): mostly spread | HUVEC spreading, rank among surfaces (HUVECs [1]; all times examined, 1-72 hours): spread the most | Actin stress fibers and focal contacts (HUVECs [2]): displayed actin stress fibers and focal contacts | Cytoskeletal organization and focal adhesion compared to FN (HUVECs [2]): better-developed cytoskeletal structure compared to FN; also recorded: stronger cytoskeletal organization and focal adhesion formation | Fibronectin secretion by adhered HUVECs (HUVECs [3]; after 48 hours): fully covered with secreted fibronectin | Amount of fibronectin secretion, PR_b versus FN (HUVECs [3]; all times examined): comparable for both substrates | Blocking of binding of PR_b and GRGDSP targeted stealth liposomes (low PEG2000) to CT26.WT cells (CT26.WT cells): completely blocks the binding; also recorded: completely blocked
